Laboratory results reported in paper PMC12624955, “Exploring diarylheptanoid derivatives to target LIMK1 as potential agents against colorectal cancer” (Journal of Enzyme Inhibition and Medicinal Chemistry, 2025).
Like-named read-outs stand apart in the source and are kept apart here.

Assays:
LIMK1 = target: T1, LIMK1 (Homo sapiens, UniProt P53667); assay: LanthaScreen Eu kinase binding assay (SelectScreen), LIMK1 inhibition; details: for inhibition at 10 µM: compound at 10 μM, average of two replicates, read-out: Inhibition percentage at 10 μM
T1 construct: purchased Thermo Fisher Scientific (SelectScreen Kinase assay service)
Experimental: The inhibitory activities of the compounds against kinases were tested using the SelectScreen Kinase assay from Thermo Fisher Scientific in Waltham, MA, USA. The LanthaScreen Eu kinase binding assay was used to validate the LIMK1 inhibition activity of the compounds, and was performed according to the manufacturer’s protocol (https://www.thermofisher.com/tw/zt/home/industrial/pharma-biopharma/drug-discovery-development/target-and-lead-identification-and-validation/kinasebiology/kinase-activity-assays/lanthascreentm-eu-kinase-binding-assay/lanthascreen-eu-kinase-binding-assay-validation-table.html). This endpoint assay quantifies inhibitor binding through the displacement of a fluorescently labelled ATP-competitive tracer from LIMK1. A mixture of the 100× compounds, 2× LIMK1/antibody mixture (Eu-anti-His), 4× tracer 236, and kinase buffer were mixed sequentially. After incubation at room temperature for 1 h, the mixture was analysed using a fluorescence plate reader. The kinase inhibition assay results were expressed as the average of two replicates.

LIMK = details: cited from earlier work
HCT-116 [1] = assay: MTT assay (cell viability); type: cell-based; details: Homo sapiens, 72 h, mean ± SD
Experimental: (§1) Colorectal cell line, HCT-116, was purchased from the Bioresource Collection and Research Centre (BCRC, Hsinchu, Taiwan), while HT-29 was obtained from the American Type Culture Collection (ATCC, Manassas, VA, USA). Both cell lines were maintained in McCoy’s 5 A medium (with L-glutamine and 2.2 g/L NaHCO3, M4892, Sigma) supplemented with 10% foetal bovine serum (Corning Incorporated, NY, USA) and 1% penicillin–streptomycin–amphotericin B (100 unit/ml penicillin G, 0.1 mg/ml streptomycin sulphate, 0.25 μg/ml amphotericin B, Corning Incorporated, NY, USA). All cultures were maintained in a humidified incubator at 37 °C with 5% CO2.
(§2) Cells were seeded in 96-well plates at a density of 3 × 10^3 cells/well in 100 μl of culture medium and treated with compounds at the indicated concentrations (0.3, 1, 3, 10, and 30 μM) for 72 h. Following treatment, the 3-(4,5-dimethylthiazol-2-yl)-2,5-diphenyltetrazolium bromide (MTT) solution (5 mg/ml in Phosphate-buffered saline (PBS)) was added to each well to reach a final concentration of 0.5 mg/ml, and the cells were incubated at 37 °C for 1 h. The resulting formazan crystal was dissolved in 100 µl of DMSO, and the absorbance was measured at 550 nm using an ELISA reader (Molecular Device, Sunnyvale, CA, USA).

HT-29 [2] = assay: MTT assay (cell viability); type: cell-based; details: Homo sapiens, 72 h, mean ± SD
Experimental: as §1, §2

HCT-116 [3] = assay: Sulforhodamine B assay (cell proliferation); type: cell-based
Experimental: as §1
(§3) Cells were seeded in 96-well plates at a density of 3 × 10^3 cells/well in 100 μl of culture medium and treated with compounds at the indicated concentrations for 72 h. After treatment, cells were fixed with 10% trichloroacetic acid for 20 min and washed with H2O. The cells were then stained with 0.4% sulforhodamine B (SRB) in 1% acetic acid for 20 min, followed by two washes with 1% acetic acid. After the well-dried, the protein-bound dye was dissolved in 100 µl of 10 mM Tris base solution, and the absorbance was measured at 515 nm using an ELISA reader (Molecular Device, Sunnyvale, CA, USA).

HT-29 [4] = assay: Sulforhodamine B assay (cell proliferation); type: cell-based; details: Homo sapiens, SRB assay, 72 h, mean ± SD
Experimental: as §1, §3

T1 sequence (P53667 whole entry): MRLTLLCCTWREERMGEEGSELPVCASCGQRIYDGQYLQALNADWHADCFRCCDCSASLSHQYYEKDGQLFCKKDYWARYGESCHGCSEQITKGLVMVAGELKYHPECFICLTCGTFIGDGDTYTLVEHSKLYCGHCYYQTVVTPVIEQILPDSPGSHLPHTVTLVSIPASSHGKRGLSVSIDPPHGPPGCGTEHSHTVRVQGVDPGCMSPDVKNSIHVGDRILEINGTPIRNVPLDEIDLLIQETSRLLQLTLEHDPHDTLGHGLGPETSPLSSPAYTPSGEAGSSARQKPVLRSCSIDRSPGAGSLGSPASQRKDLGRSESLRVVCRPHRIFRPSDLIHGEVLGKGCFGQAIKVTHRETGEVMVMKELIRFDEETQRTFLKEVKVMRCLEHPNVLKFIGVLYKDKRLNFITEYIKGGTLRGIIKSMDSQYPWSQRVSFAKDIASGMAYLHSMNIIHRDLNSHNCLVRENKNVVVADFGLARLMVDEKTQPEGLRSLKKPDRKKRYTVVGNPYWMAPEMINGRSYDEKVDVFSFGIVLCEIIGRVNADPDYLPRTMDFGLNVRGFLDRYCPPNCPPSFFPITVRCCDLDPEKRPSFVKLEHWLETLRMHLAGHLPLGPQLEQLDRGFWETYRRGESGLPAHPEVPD

Row | inhibition at 10 µM (LIMK1) [%] | Compound | other results
1 | 51 | O=C(CCCCn1ccc2c(O)cccc21)CCc1ccc(O)c(O)c1 [Compound 14a, 1-(3,4-Dihydroxyphenyl)-7-(4-hydroxy-1H-indol-1-yl)heptan-3-one] | 
2 | 106 | O=C(/C=C/c1ccc(O)c(O)c1)CCCCc1ccc(O)cc1 [Compound 7c, 1-(3.4-Dihydroxyphenyl)-7-(4-hydroxyphenyl)hept-1-en-3-one] | IC50 (LIMK1): 1.09 µM
3 | 53 | O=C(CCCCn1ccc2ccc(O)cc21)CCc1ccc(O)c(O)c1 [Compound 14b, 1-(3,4-Dihydroxyphenyl)-7-(6-hydroxy-1H-indol-1-yl)heptan-3-one] | 
4 | 89 | O=C(/C=C/c1ccc(O)c(O)c1)CCCCc1ccccc1O [Compound 7a, 1-(3.4-Dihydroxyphenyl)-7-(2-hydroxyphenyl)hept-1-en-3-one] | IC50 (LIMK1): 1.77 µM
5 | 106 | O=C(/C=C/c1ccc(O)c(O)c1)CCCCn1ccc2ccc(O)cc21 [Compound 13b, (E)-1-(3.4-dihydroxyphenyl)-7-(6-hydroxy-1H-indol-1-yl)hept-1-en-3-one] | IC50 (LIMK1): 1.39 µM
6 | 102 | O=C(/C=C/c1ccc(O)c(O)c1)CCCCc1cccc(O)c1 [Compound 7b, 1-(3.4-Dihydroxyphenyl)-7-(3-hydroxyphenyl)hept-1-en-3-one] | IC50 (LIMK1): 1.11 µM
7 | 34 | O=C(CCCCc1cccc(O)c1)CCc1ccc(O)c(O)c1 [Compound 8b, 1-(3.4-Dihydroxyphenyl)-7-(3-hydroxyphenyl)heptan-3-one] | 
8 | 47 | O=C(CCCCc1ccc(O)cc1)CCc1ccc(O)c(O)c1 [Compound 8c, 1-(3.4-Dihydroxyphenyl)-7-(4-hydroxyphenyl)heptan-3-one] | 
9 | 37 | O=C(CCCCc1ccccc1O)CCc1ccc(O)c(O)c1 [Compound 8a, 1-(3.4-Dihydroxyphenyl)-7-(2-hydroxyphenyl)heptan-3-one] | 

Continued, molecule first:

Row | Compound | inhibition at 10 µM (LIMK1) [%] | other results
10 | COc1cc(/C=C/C(=O)CC(=O)/C=C/c2ccc(O)c(OC)c2)ccc1O [curcumin] |  | IC50 (LIMK): 30 µM
11 | O=C(/C=C/c1ccccc1)CCCCc1ccccc1 [Compound VII] | ≤ 0 | 
12 | O=C(/C=C/c1ccc(O)c(O)c1)Cc1ccccc1 [IV] | 56 | 
13 | O=C(CCCCc1ccccc1)CCc1ccc(O)c(O)c1 [II] | 30 | 
14 | O=C(/C=C/c1ccc(O)cc1)CCCCc1ccccc1 [VIII] | ≤ 0 | 
15 | COc1cc(/C=C/C(=O)CCCCc2ccccc2)ccc1O [XIV] | 1 | 
16 | O=C(/C=C/c1ccc(O)c([N+](=O)[O-])c1)CCCCc1ccccc1 [XIII] | 7 | 
17 | O=C(/C=C/c1ccc(O)c(O)c1)CCc1ccccc1 [Compound V] | 68 | 
18 | O=C(/C=C/c1ccc(O)c(F)c1)CCCCc1ccccc1 [Compound X] | ≤ 0 | 
19 | O=C(/C=C/c1ccc(O)c(Br)c1)CCCCc1ccccc1 [XII] | 1 | 
20 | O=C(CCCCn1ccc2ccccc21)CCc1ccc(O)c(O)c1 [Compound 19, 1-(3,4-Dihydroxyphenyl)-7-(1H-indol-1-yl)heptan-3-one] | 28 | 
21 | O=C(/C=C/c1ccc(O)c(O)c1)CCCCn1ccc2ccccc21 [Compound 18, (E)-1-(3,4-dihydroxyphenyl)-7-(1H-indol-1-yl)hept-1-en-3-one] | 110 | IC50 (LIMK1): 1.49 µM
22 | O=C(/C=C/c1ccc(O)c(O)c1)c1ccccc1 [III] | 84 | 
23 | O=C(/C=C/c1ccc(O)c(O)c1)CCCc1ccccc1 [Compound VI] | 82 | 
24 | O=C(/C=C/c1ccc(O)c(Cl)c1)CCCCc1ccccc1 [XI] | 4 | 
25 | O=C(/C=C/c1ccc(O)c(O)c1)CCCCc1ccccc1 [Compound I] | 101 | IC50 (LIMK1): 1.59 µM
26 | O=C(/C=C/c1cccc(O)c1)CCCCc1ccccc1 [IX] | ≤ 0 | 
27 | COCOc1cccc2c1ccn2CCCCC(=O)/C=C/c1ccc(O)c(O)c1 [Compound 15, (E)-1-(3,4-dihydroxyphenyl)-7-(4-(methoxymethoxy)-1H-indol-1-yl)hept-1-en-3-one] | 106 | IC50 (LIMK1): 1.88 µM
28 | O=C(/C=C/c1cc(O)c(O)c(O)c1)CCCCc1ccccc1 [Compound XV] | 112 | IC50 (HCT-116 [1]): > 30 µM; IC50 (HT-29 [2]): > 30 µM; IC50 (LIMK1): 0.57 µM; IC50 (LIMK1; as printed in text): 0.569 µM; GI50 (HCT-116 [3]; Homo sapiens, SRB assay, 72 h, mean ± SD): > 30 µM; growth inhibition of HCT-116 cells (HCT-116 [3]; concentration of 30 µM): did not inhibit the growth; GI50 (HT-29 [4]): 28.8 ± 1.8 µM
